The assay is described as follows: Activity against thromboxane A2 receptor evaluated by aggregation of human platelets.

For orientation: EC50 means the concentration at which the effect is half-maximal. Low values mean greater potency, high ones weaker potency.

For `CCCCCC(O)/C=C/[C@@H]1[C@@H](C/C=C\CCCC(=O)O)[C@@H]2C[C@H]1OC(=O)O2` (stereo partly drawn) [(Z)-7-[(1R,5S,6R,7R)-7-((E)-3-Hydroxy-oct-1-enyl)-3-oxo-2,4-dioxa-bicyclo[3.2.1]oct-6-yl]-hept-5-enoic acid], the midpoint of the response, the EC50, lay at 24 nM.
Compound `CCCCCC(O)/C=C/[C@@H]1[C@@H](C/C=C\CCCC(N)=O)[C@@H]2C[C@H]1OC(=O)O2` (stereo partly drawn) [(Z)-7-[(1R,5S,6R,7R)-7-((E)-3-Hydroxy-oct-1-enyl)-3-oxo-2,4-dioxa-bicyclo[3.2.1]oct-6-yl]-hept-5-enoic acid amide] yielded an EC50 of 3110 nM.
